Laboratory results reported in patent US11666532B2, “Tranexamic acid oral solution” (Hyloris Developments SA, priority 2018, dated 2023).
Where two headings read alike, the source gives them in different places.

Assays:
[1] = Binary mixtures study: discoloration at 60° C., visual inspection; type: physicochemical; settings: binary mixture with TXA in phosphoric acid solution pH 5.5, glass vials, 60° C. oven, 2 weeks
Experimental: To determine which components of the formulation were responsible for the discoloration, binary mixtures of TXA and each component were dissolved in phosphoric acid solution at pH 5.5 in amounts representative to their concentration in Formulation A of Table 1A.
Samples of each mixture in Table 1B were placed in glass vials and stored in 60° C. oven for 2 weeks and visually inspected periodically for discoloration. The samples from Table 1B containing TXA and Sorbitol (sample 5), or TXA and Glycerin (sample 3), or TXA and Poloxamer 407 (sample 6), or TXA and spearmint flavor F-4785, turned yellow. Thus sorbitol, glycerin, poloxamer 407 and spearmint flavor were considered to be the ingredients responsible for the discoloration of formula A.
Binary mixtures of TXA and alternative surfactants were prepared and samples were stored in a 60° C. oven to test for discoloration as described in Table 2.
Binary mixtures of Na CMC and TXA were prepared and stored at 60° C. for 2 weeks to test for discoloration as in Table 3.

serum albumin = serum albumin (Homo sapiens, UniProt P02768); settings: cited from earlier work
Chain of serum albumin (P02768 25-609): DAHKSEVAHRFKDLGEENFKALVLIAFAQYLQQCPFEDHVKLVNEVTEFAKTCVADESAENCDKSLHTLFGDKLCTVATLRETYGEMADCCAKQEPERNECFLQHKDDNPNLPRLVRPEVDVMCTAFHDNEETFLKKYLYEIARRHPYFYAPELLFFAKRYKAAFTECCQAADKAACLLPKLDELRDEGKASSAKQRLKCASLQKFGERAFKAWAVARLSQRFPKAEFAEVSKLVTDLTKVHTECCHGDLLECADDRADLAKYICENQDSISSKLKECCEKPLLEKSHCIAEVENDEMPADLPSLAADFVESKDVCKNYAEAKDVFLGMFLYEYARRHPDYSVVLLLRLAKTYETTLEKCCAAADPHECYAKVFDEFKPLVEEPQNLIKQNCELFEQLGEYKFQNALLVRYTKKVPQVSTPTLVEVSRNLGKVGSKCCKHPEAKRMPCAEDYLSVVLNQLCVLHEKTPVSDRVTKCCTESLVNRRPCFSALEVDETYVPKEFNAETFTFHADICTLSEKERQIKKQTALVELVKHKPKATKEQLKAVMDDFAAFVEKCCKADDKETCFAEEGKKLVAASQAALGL

[2] = cited from earlier work
[3] = test system: bleeding during or after dental procedures; settings: local tranexamic acid as a supplement to systemic therapy; cited from earlier work
plasma protein = settings: cited from earlier work
plasminogen = plasminogen (Homo sapiens, UniProt P00747); settings: cited from earlier work
Chain of plasminogen (P00747 20-810 limits assumed): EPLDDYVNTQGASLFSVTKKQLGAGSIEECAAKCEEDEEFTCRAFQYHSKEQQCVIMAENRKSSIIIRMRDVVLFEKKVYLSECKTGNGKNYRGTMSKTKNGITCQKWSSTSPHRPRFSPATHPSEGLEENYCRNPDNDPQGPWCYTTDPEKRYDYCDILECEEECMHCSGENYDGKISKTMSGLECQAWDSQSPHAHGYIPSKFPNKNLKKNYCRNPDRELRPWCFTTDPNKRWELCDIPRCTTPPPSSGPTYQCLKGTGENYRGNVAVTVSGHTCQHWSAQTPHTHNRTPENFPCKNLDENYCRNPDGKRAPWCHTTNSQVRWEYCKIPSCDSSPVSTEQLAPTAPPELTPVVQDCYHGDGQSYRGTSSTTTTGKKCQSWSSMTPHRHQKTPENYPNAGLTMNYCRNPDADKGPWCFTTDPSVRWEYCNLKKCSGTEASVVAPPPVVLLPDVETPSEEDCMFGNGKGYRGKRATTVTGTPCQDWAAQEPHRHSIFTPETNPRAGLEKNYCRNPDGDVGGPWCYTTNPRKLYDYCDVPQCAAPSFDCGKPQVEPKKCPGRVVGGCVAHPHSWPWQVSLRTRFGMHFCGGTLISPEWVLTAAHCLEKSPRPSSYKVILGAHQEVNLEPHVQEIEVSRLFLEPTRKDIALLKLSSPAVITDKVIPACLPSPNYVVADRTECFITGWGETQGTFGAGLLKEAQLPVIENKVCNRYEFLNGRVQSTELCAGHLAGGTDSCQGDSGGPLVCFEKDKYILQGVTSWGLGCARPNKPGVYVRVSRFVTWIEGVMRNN

[4] = test system: whole blood or citrated blood from normal subjects; settings: cited from earlier work
[5] = cited from earlier work; remark: listed apart in the source
[6] = after oral and intravenous administration
[7] = four doses of 10-20 mg per kg body weight 36-48 hours before surgery
[8] = three hours after a single oral dose of 25 mg per kg body weight

Molecule: polyoxyethylene (20)sorbitan monooleate [Tween 80]
- Discoloration [1]: didn't cause discoloration

Molecule: polyoxyethylene sorbitan monolaurate [Tween 20]
- Discoloration [1]: didn't cause discoloration

Molecule: NC[C@H]1CC[C@H](C(=O)O)CC1 [tranexamic acid, trans-4-(aminomethyl) cyclohexanecarboxylic acid]
- binding to serum albumin (serum albumin): does not bind
- concentrations in saliva, initially ([2]; after mouth rinse): above 200 μg per mL
- plasma concentrations ([2]; after mouth rinse): below 2 μg per mL
- time saliva concentrations remained above therapeutic levels ([2]; after mouth rinse): more than 2 hours
- saliva levels ([2]; after oral administration, any time point): undetectable
- maximum mean plasma concentration ([2]; after oral administration): ~7 μg per mL
- time to maximum mean plasma concentration ([2]; after oral administration): 120 min
- incidence of bleeding during or after dental procedures (postoperative bleeding) [3]: significantly reduces
- plasma protein binding (plasma protein; at therapeutic plasma levels of 5-10 mg/L): negligible
- plasma protein binding (plasma protein; at therapeutic plasma levels): about 3%
- binding to strong and weak sites in the plasminogen molecule relative to epsilon aminocaproic acid (EACA) (plasminogen): considerably more strongly
- thrombin time ([4]; concentrations of 1 mg to 10 mg per mL blood): prolongs
- influence on the platelet count, the coagulation time, or various coagulation factors ([4]; concentrations up to 10 mg per mL blood, whole blood or citrated blood from normal subjects): no influence
- excretion ([5]; 24 hours after oral administration of 10-15 mg per kg body weight): 39%
- concentration in fetal serum ([5]; after intravenous injection of 10 mg per kg body weight): about 30 μg per mL
- acetylated product excreted ([5]; after oral administration): ~0.5%
- deaminated dicarboxylic acid excreted ([5]; after oral administration): ~2%
- parent compound excreted ([5]; after oral administration): approximately 50%
- fibrinolytic activity of the semen [5, 6]: inhibits
- motility of the spermatozoa [5, 6]: without affecting
- passage into the semen [5, 6]: passes into the semen
- concentration in breast milk relative to corresponding serum levels ([5]; during lactation): 1/100
- plasma concentration ([5]; five hours after intravenous 10 mg per kg body weight): 5 μg per mL
- time an antifibrinolytically active concentration (10 μg/mL) remained in the serum [5, 7]: 7 to 8 h
- time an antifibrinolytically active concentration (10 μg/mL) remained in the tissues investigated [5, 7]: up to 17 hours
- biological half-life in the joint fluid ([5]; in vivo): about 3 hours
- concentration in the joint fluid compared with the serum ([5]; in vivo): same concentration
- dose excreted in the urine as unchanged drug ([5]; in vivo): more than 95%
- fraction of the drug metabolized ([5]; in vivo): less than 5%
- placental transfer ([5]; in vivo): crosses the placenta
- half-life for the terminal elimination phase ([5]; intravenous dose of 1 g): about 2 hours
- plasma concentration ([5]; one hour after intravenous 10 mg per kg body weight): 18.3 μg per mL
- excretion ([5]; one hour after intravenous administration of 10 mg per kg body weight): about 30%
- excretion ([5]; one hour after oral administration of 10-15 mg per kg body weight): 1%
- effect of food intake on bioavailability ([5]; oral): not affected
- ability to cross the blood-brain barrier ([5]; patients with ruptured intracranial aneurysms): has been demonstrated
- aqueous humor level [5, 8]: 1.6 mg per L
- peak serum level [5, 8]: 15.4 mg per L
- plasma concentration ([5]; three hours after intravenous 10 mg per kg body weight): 9.6 μg per mL
- excretion ([5]; three hours after intravenous administration of 10 mg per kg body weight): ~55%
- excretion ([5]; three hours after oral administration of 10-15 mg per kg body weight): 7%

Molecule: alpha-D-Glucopyranoside, beta-D-fructofuranosyl, monooctadecanoate [Sucrose Stearate]
- Discoloration [1]: did not dissolve into solution

Molecule: beta-D-Fructofuranosyl-alpha-D-glucopyranoside, monododecanoate [Sucrose Laurate]
- Discoloration [1]: didn't cause discoloration
